We go through 33 molecules from patent US7294637B2 (Sepracor, Inc., priority 2000, dated 2007).

Where two headings read alike, the source gives them in different places.

Assay [1] has as its target norepinephrine transporter (Homo sapiens, UniProt P23975). Put plainly: NE uptake: displacement of norephinephrine ligands in vitro (methods of Galli et al.). In kind it is binding.
For a further assay, the target named is dopamine transporter (Homo sapiens, UniProt Q01959). The experiment in a line: DA uptake: displacement of dopamine ligands in vitro (methods of Gu et al.).
For another assay, the target named is serotonin transporter (Homo sapiens, UniProt P31645). The experiment in a line: 5-HT uptake: displacement of serotonin ligands in vitro (methods of Gu et al.). The format is binding.
Where [2] appears, read: read-out: NE Uptake, Uptake Profile (IC50).
Where [3] appears, read: DA Uptake, Uptake Profile (IC50, nM), displacement of dopamine ligands in vitro.
Setting [4] is: displacement of serotonin ligands in vitro, read-out: 5-HT Uptake, Uptake Profile (IC50).
Setting [5] is: NE Uptake, Uptake Profile (IC50, nM).
Where [6] appears, read: read-out: DA Uptake, Uptake Profile (IC50), displacement of dopamine ligands in vitro.
The mark [7] stands for this setting: 5-HT Uptake, Uptake Profile (IC50, nM).

Sequence of norepinephrine transporter (P23975 whole entry): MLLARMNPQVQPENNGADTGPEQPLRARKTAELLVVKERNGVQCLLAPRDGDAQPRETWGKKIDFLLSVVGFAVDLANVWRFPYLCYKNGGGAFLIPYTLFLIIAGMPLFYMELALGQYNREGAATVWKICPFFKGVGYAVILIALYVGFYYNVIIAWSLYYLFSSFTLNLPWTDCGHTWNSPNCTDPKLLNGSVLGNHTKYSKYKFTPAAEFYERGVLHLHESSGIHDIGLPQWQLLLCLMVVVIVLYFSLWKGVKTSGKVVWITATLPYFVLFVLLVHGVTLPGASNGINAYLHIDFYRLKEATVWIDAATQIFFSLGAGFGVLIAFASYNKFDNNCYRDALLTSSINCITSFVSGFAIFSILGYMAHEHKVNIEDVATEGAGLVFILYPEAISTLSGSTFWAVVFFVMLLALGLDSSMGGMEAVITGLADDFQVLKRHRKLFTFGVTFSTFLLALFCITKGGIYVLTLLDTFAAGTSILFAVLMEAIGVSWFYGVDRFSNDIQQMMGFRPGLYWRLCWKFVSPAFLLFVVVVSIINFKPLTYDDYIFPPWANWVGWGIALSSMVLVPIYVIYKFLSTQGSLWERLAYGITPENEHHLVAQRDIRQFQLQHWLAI
Sequence of serotonin transporter (P31645 whole entry): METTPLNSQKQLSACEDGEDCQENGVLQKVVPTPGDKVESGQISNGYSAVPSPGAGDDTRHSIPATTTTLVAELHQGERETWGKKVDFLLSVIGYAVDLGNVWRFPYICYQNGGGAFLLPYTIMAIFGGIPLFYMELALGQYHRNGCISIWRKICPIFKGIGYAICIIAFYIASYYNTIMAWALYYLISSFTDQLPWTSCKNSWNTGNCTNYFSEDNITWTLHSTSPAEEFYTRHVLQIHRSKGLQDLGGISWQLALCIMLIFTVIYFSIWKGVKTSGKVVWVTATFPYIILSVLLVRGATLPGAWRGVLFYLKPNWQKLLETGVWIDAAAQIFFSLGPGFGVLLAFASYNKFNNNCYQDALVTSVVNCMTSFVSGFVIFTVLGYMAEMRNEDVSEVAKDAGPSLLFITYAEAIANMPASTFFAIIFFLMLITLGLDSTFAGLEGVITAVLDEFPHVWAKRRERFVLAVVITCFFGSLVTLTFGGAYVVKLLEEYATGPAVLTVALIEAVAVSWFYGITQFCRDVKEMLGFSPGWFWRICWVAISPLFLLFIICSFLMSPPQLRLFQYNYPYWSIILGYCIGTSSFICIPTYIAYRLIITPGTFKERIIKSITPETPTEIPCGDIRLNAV
Sequence of dopamine transporter (Q01959 whole entry): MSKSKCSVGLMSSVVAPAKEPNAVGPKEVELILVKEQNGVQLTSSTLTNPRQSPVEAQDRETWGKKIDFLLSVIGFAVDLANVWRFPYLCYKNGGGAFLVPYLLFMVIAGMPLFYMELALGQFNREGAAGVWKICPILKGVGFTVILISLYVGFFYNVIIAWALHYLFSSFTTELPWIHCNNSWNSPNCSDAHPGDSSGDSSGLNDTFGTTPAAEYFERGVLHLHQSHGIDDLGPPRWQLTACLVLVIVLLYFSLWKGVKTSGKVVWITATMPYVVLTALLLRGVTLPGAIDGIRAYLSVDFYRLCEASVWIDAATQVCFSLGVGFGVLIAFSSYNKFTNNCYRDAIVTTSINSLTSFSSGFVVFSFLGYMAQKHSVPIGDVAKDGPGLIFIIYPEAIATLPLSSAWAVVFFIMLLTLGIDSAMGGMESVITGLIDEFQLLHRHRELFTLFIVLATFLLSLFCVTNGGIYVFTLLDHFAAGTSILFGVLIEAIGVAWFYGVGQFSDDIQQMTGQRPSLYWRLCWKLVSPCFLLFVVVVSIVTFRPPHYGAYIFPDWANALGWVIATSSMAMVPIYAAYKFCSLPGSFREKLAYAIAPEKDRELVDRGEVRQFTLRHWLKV

In the case of `OC(C[C@H]1CCCN(CC2(c3ccc(Cl)cc3)CCC2)C1)c1ccccc1` (stereo in doubt) [compound 182, (S)-[2-{1-[1-(4-Chloro-phenyl)-cyclobutylmethyl]-piperidin-3-yl}-1-phenyl-ethanol]], the IC50 was more than 1000 nM in assay [1] (setting [2]), less than 100 nM at dopamine transporter (setting [3]) and less than 1000 nM on serotonin transporter (setting [4]).
For the molecule `CC(O)(CN1CCC[C@@H](CCc2ccccc2)C1)c1ccc(Cl)cc1` (stereo partly drawn) [compound 197, 2-(4-Chloro-phenyl)-1-(3 (R)-phenethyl-piperidin-1-yl)-propan-2-ol], the IC50 in assay [1] (setting [5]) was less than 1000 nM; on dopamine transporter (setting [3]), less than 1000 nM; on serotonin transporter (setting [4]), less than 10 nM.
As to `OC1(COc2ccc(C(F)(F)F)cc2)CCCN(CC2(c3ccc(Cl)cc3)CCC2)C1` (centres unmarked) [compound 167, [1-(4-Chloro-phenyl)-cyclobutylmethyl]-3-(4-trifluoromethyl-phenoxymethyl)-piperidin-3-ol], the IC50 is more than 1000 nM in assay [1] (setting [2]); more than 1000 nM at dopamine transporter (setting [3]); more than 1000 nM at serotonin transporter (read-out: 5-HT Uptake, Uptake Profile (IC50)).
For `CC(C)(CN1CCCC(COc2ccc(C(F)(F)F)cc2)C1)c1ccc(Cl)cc1` (centres unmarked) [compound 42, 1-[2-(chloro-phenyl)-2-methyl-propyl]-3-(4-trifluoromethyl-phenoxymethyl)-piperidine], the half-maximal inhibitory concentration (IC50) was less than 1000 nM in assay [1] (setting [2]), less than 100 nM on dopamine transporter (setting [6]) and more than 1000 nM at serotonin transporter (setting [4]).
On to `FC(F)(F)c1ccc(OCC2CCCN(CCc3ccc(-c4ccccc4)cc3)C2)cc1` (centres unmarked) [compound 181, 1-(2-Biphenyl-4-yl-ethyl)-3-(4-trifluoromethyl-phenoxymethyl)-piperidine], for which the IC50 in assay [1] (setting [5]) is less than 1000 nM; at dopamine transporter (setting [3]), more than 1000 nM; at serotonin transporter (setting [7]) it was less than 100 nM.
For `Clc1ccc(C2(CN3CCCC(COc4ccccc4)C3)CCC2)cc1` (single isomer, unassigned) [compound 5], the IC50 at dopamine transporter (setting [3]) is less than 1000 nM.
For the molecule `FC(F)(F)c1ccc(SCC2CCCN(CC3(c4ccc(Cl)cc4)CCC3)C2)cc1` (centres unmarked) [compound 78], the IC50 is less than 1000 nM in assay [1] (setting [5]), less than 1000 nM on dopamine transporter (setting [3]) and more than 1000 nM at serotonin transporter (setting [4]).
On to `COc1ccc(OCC2CCCN(CC3(c4ccccc4)CCC3)C2)cc1` (centres unmarked) [compound 55, 3-(4-Methoxy-phenoxymethyl)-1-(1-phenyl-cyclobutylmethyl)piperidine], for which the results for the IC50 (in assay [1] (setting [5]); at dopamine transporter (setting [3]); at serotonin transporter (setting [4])) were more than 1000 nM, less than 1000 nM and more than 1000 nM, respectively.
With `OC(CN1CCCC(CCc2ccccc2)C1)c1ccc(Cl)cc1` (single isomer, unassigned) [compound 142, 1-(4-Chloro-phenyl)-2-(3-phenethyl-piperidin-1-yl)-ethanol], the results for the IC50 (in assay [1] (setting [5]); on dopamine transporter (setting [3]); at serotonin transporter (setting [4])) were less than 1000 nM, less than 1000 nM and less than 100 nM, respectively.
Regarding `Clc1ccc(C2(CN3CCCC(CCc4ccccc4)C3)CCC2)cc1` (centres unmarked) [compound 147, 1-[1-(4-Chloro-phenyl)-cyclobutylmethyl]-3-phenethyl-piperidine], the half-inhibitory concentration (IC50) in assay [1] (setting [5]) is less than 100 nM; at dopamine transporter (setting [3]), less than 1000 nM; at serotonin transporter (setting [4]), more than 1000 nM.
`FC(F)(F)c1cc(COC2CCCN(CC3(c4ccc(Cl)cc4)CCC3)C2)cc(C(F)(F)F)c1` (centres unmarked) [compound 189, 3-(3,5-Bis-trifluoromethyl-benzyloxy)-1-[1-(4-chloro-phenyl)-cyclobutylmethyl]-piperidine]: the IC50 (in assay [1] (setting [2]); at dopamine transporter (setting [3]); on serotonin transporter (setting [4])) was more than 1000 nM each time.
Turning to `CN(C[C@@H]1CCCN(CC2(c3ccc(Cl)cc3)CCC2)C1)c1ccccc1` [compound 35, {1-[1-(4-Chloro-phenyl)-cyclobutylmethyl]-piperidin-3-R-ylmethyl}-methyl-phenyl-amine], the IC50 (in assay [1] (setting [2]); on dopamine transporter; at serotonin transporter (setting [4])) was more than 1000 nM throughout.
`OC(CN1CCCC(CCc2ccccc2)C1)c1ccc(Cl)cc1` (centres unmarked) [compound 140, 1-(4-Chloro-phenyl)-2-(3-phenethyl-piperidin-1-yl)-ethanol]: the IC50 (in assay [1] (setting [5]); at dopamine transporter (setting [3]); on serotonin transporter (setting [4])) was less than 100 nM in each case.
On to `CO[C@H](CN1CCC[C@H](COc2ccc(C(F)(F)F)cc2)C1)C1(c2ccc(Cl)cc2)CCC1` [compound 163], for which the figures for the IC50 (in assay [1] (setting [5]); at dopamine transporter (setting [3]); on serotonin transporter (setting [4])) were more than 1000 nM, less than 10 nM and less than 1000 nM, respectively.
`Clc1ccc(C2(CN3CCCC(COc4ccccc4)C3)CCC2)cc1` (single isomer, unassigned) [compound 6]: the IC50 at dopamine transporter (setting [6]) was less than 1000 nM.
As to `CC(O)(CN1CCCC(COc2ccccc2)C1)c1ccc(Cl)cc1` (centres unmarked) [compound 79, 2-(4-Chloro-phenyl)-1-(3-phenoxymethyl-piperidin-1-yl)-propan-2-ol], the IC50 was less than 1000 nM in assay [1] (setting [5]), less than 1000 nM on dopamine transporter (setting [3]) and less than 100 nM at serotonin transporter (setting [4]).
In the case of `O=C(CN1CCCC(CCc2ccc(C(F)(F)F)cc2)C1)c1ccc(Cl)cc1` (centres unmarked) [compound 150, 1-(4-Chloro-phenyl)-2-{3-[2-(4-trifluoromethyl-phenyl)-ethyl]-piperidin-1-yl}-ethanone], the IC50 (in assay [1] (setting [2]); on dopamine transporter; at serotonin transporter (setting [4])) was more than 1000 nM each time.
Regarding `CC(O)(C[C@H]1CCCN(CC2(c3ccc(Cl)cc3)CCC2)C1)c1ccccc1` (stereo in doubt) [compound 185, (S)-[1-{1-[1-(4-Chloro-phenyl)-cyclobutylmethyl]-piperidin-3-yl}-2-phenyl-propan-2-ol]], the values for the IC50 (in assay [1] (setting [2]); at dopamine transporter (setting [3]); at serotonin transporter (setting [4])) were more than 1000 nM, less than 1000 nM and more than 1000 nM, respectively.
For the molecule `O=C(CN1CCCC(CCc2ccc(C(F)(F)F)cc2)C1)C1(c2ccc(Cl)cc2)CCC1` (centres unmarked) [compound 155, 1-[1-(4-Chloro-phenyl)-cyclobutyl]-2-{3-[2-(4-trifluoromethyl-phenyl)-ethyl]-piperidin-1-yl}-ethanone], the IC50 in assay [1] (setting [5]) is more than 1000 nM; at dopamine transporter (setting [3]), less than 100 nM; at serotonin transporter (setting [4]), more than 1000 nM.
In the case of `O=C(CN1CCCC(COc2ccccc2)C1)C1(c2ccc(Cl)cc2)CCC1` (centres unmarked) [compound 20, 1-[1-(4-Chlorophenyl)cyclobutyl]-2-(3-phenoxymethylpiperidin-1-yl)ethanone], the IC50 (in assay [1] (setting [5]); at dopamine transporter (setting [3]); at serotonin transporter (setting [4])) was less than 1000 nM in each case.
For `OC(CN1CCCC(CCc2ccc(OC(F)(F)F)cc2)C1)c1ccc(Cl)cc1` (centres unmarked) [compound 201], the IC50 in assay [1] (setting [5]) was less than 1000 nM; on dopamine transporter (setting [3]), less than 10 nM; on serotonin transporter (setting [4]), less than 1000 nM.
In the case of `OC(CN1CCCC(COc2ccc(C(F)(F)F)cc2)C1)(c1ccccc1)C1CCCCC1` (centres unmarked) [compound 191, 1-Cyclohexyl-1-phenyl-2-[3-(4-trifluoromethyl-phenoxymethyl)-piperidin-1-yl]-ethanol], the IC50 (in assay [1] (setting [2]); at dopamine transporter (setting [3]); at serotonin transporter (setting [4])) was more than 1000 nM throughout.
In the case of `OC(CN1CCCC(COc2ccc(C(F)(F)F)cc2)C1)C1(c2ccc(C(F)(F)F)cc2)CCC1` (centres unmarked) [compound 166], the IC50 is less than 100 nM in assay [1] (setting [5]), less than 10 nM at dopamine transporter (setting [3]) and more than 1000 nM on serotonin transporter (setting [4]).
As to `FC(F)(F)c1ccc(OC[C@@H]2CCCN(CC3(c4ccc(Cl)cc4)CCC3)C2)cc1` [compound 76], the 50% inhibitory concentration (IC50) in assay [1] (setting [5]) is less than 1000 nM; at dopamine transporter (setting [3]) it was less than 1000 nM; on serotonin transporter (setting [7]), more than 1000 nM.
As to `O=C(CN1CCCC(COc2ccccc2)C1)c1ccc(Cl)cc1` (centres unmarked) [compound 32, 1-(4-Chloro-phenyl)-2-(3-phenoxymethyl-piperidin-1-yl)-ethanone], the results for the half-inhibitory concentration (IC50) (in assay [1] (setting [5]); on dopamine transporter (setting [3]); on serotonin transporter (setting [7])) were less than 1000 nM, more than 1000 nM and more than 1000 nM, respectively.
`OC(CN1CCCC(COc2ccccc2)C1)C1(c2ccc(Cl)cc2)CCC1` (centres unmarked) [compound 21, 1-[1-(4-Chloro-phenyl)cyclobutyl]-2-(3-phenoxymethylpiperidin-1-yl)ethanol]: the IC50 is less than 100 nM in assay [1] (setting [5]), less than 100 nM at dopamine transporter (setting [3]) and less than 1000 nM on serotonin transporter (setting [4]).
Take `FC(F)(F)c1ccc(COC2CCCN(CC3(c4ccc(Cl)cc4)CCC3)C2)cc1` (centres unmarked) [compound 107, 1-[1-(4-Chloro-phenyl)-cyclobutylmethyl]-3-(4-trifluoromethyl-benzyloxy)-piperidine]: the IC50 in assay [1] (setting [5]) is less than 1000 nM; on dopamine transporter (setting [3]), less than 1000 nM; at serotonin transporter (setting [4]), more than 1000 nM.
For the molecule `OC(CN1CCCC(COc2ccc(OC(F)(F)F)cc2)C1)C1(c2ccc(OC(F)(F)F)cc2)CCC1` (centres unmarked) [compound 212, 2-[3-(4-Trifluoromethoxy-phenoxymethyl)-piperidin-1-yl]-1-[1-(4-trifluoromethoxy-phenyl)-cyclobutyl]-ethanol], the IC50 in assay [1] (setting [5]) was less than 1000 nM; on dopamine transporter (setting [3]) it was less than 100 nM; on serotonin transporter (setting [4]), less than 1000 nM.
As for `FC(F)(F)c1ccc(OC2CCCN(CC3(c4ccc(Cl)cc4)CCC3)C2)cc1` (centres unmarked) [compound 158], the IC50 was more than 1000 nM in assay [1] (setting [5]), less than 1000 nM at dopamine transporter (setting [3]) and more than 1000 nM on serotonin transporter (setting [4]).
With `CN(C)CC(Oc1ccc(C(F)(F)F)cc1)C1CCCN(CC2(c3ccc(Cl)cc3)CCC2)C1` (racemic) [compound 174], the concentration for half-maximal inhibition (IC50) was less than 1000 nM in assay [1] (setting [5]), less than 100 nM at dopamine transporter (setting [3]) and less than 100 nM on serotonin transporter (setting [4]).
Consider `O=C(N1CCCC(CO)C1)C1(c2ccc(Cl)cc2)CCC1` (centres unmarked) [compound 1, [1-(4-chloro-phenyl)-cyclobutyl]-(3-hydroxymethylpiperidin-1yl)-methadone], for which the IC50 (in assay [1] (setting [5]); at dopamine transporter (setting [3]); at serotonin transporter (setting [4])) was more than 1000 nM in each case.
As to `Clc1ccc(C2(CN3CCC[C@@H](COc4ccccc4)C3)CCC2)cc1` [compound 72], the IC50 at dopamine transporter (setting [3]) is less than 1000 nM.
Consider `FC(F)(F)c1ccc(OCC2CCCN(CCc3ccc(Cl)cc3)C2)cc1` (centres unmarked) [compound 8, 1-[2-(4-Chloro-phenyl)-ethyl]-3-(4-trifluoromethyl-phenoxymethyl)-piperidine], for which the IC50 (in assay [1] (setting [2]); at dopamine transporter (setting [3])) was more than 1000 nM throughout.

By IC50 is commonly meant the concentration needed to halve the response being measured.
